Experimental data: the NIST ThermoML archive (doi:10.1016/j.jct.2017.08.028)
Numbers after ± are expanded uncertainties.

Details: Crystal; for molar entropy: 100 kPa, Small (less than 1 g) adiabatic calorimetry; for mass density: 101.33 kPa, X-ray diffraction

O[C@H]1[C@H](O)[C@@H](O)[C@H](O)[C@@H](O)[C@H]1O [cis-1,2,3,5-trans-4,6-cyclohexanehexol]
Details | mass density [kg/m3] | molar entropy [J/K/mol]
5 K | – | 0.0237 ± 0.024
6 K | – | 0.0492 ± 0.024
7 K | – | 0.091 ± 0.025
8 K | – | 0.1546 ± 0.026
9 K | – | 0.2451 ± 0.029
10 K | – | 0.3742 ± 0.036
15 K | – | 1.491 ± 0.1
20 K | – | 3.261 ± 0.21
25 K | – | 5.458 ± 0.34
30 K | – | 7.964 ± 0.5
35 K | – | 10.69 ± 0.66
40 K | – | 13.58 ± 0.83
45 K | – | 16.57 ± 0.32
50 K | – | 19.63 ± 0.36
60 K | – | 25.97 ± 0.46
70 K | – | 32.56 ± 0.56
80 K | – | 39.37 ± 0.67
90 K | – | 46.36 ± 0.49
100 K | – | 53.48 ± 0.54
110 K | – | 60.72 ± 0.59
120 K | – | 68.03 ± 0.65
130 K | – | 75.4 ± 0.7
140 K | – | 82.82 ± 0.75
150 K | 1577 ± 6 | 90.26 ± 0.8
160 K | – | 97.71 ± 0.86
170 K | – | 105.2 ± 0.9
175 K | 1574 ± 6 | –
180 K | – | 112.6 ± 1
190 K | – | 120.1 ± 1
200 K | 1574 ± 6 | 127.6 ± 1.1
210 K | – | 135 ± 1.1
220 K | – | 142.4 ± 1.2
225 K | 1575 ± 6 | –
230 K | – | 149.9 ± 1.2
240 K | – | 157.3 ± 1.3
250 K | 1572 ± 6 | 164.8 ± 1.3
260 K | – | 172.2 ± 1.4
270 K | – | 179.6 ± 1.5
273.15 K | – | 182 ± 1.5
275 K | 1570 ± 6 | –
280 K | – | 187.1 ± 1.5
290 K | – | 194.5 ± 1.6
298.15 K | – | 200.6 ± 1.6
300 K | 1569 ± 6 | 202 ± 1.6
310 K | – | 209.4 ± 1.7
320 K | – | 216.9 ± 1.7
325 K | 1569 ± 6 | –
330 K | – | 224.3 ± 1.8
340 K | – | 231.8 ± 1.8
350 K | 1566 ± 6 | –
375 K | 1561 ± 6 | –
400 K | 1559 ± 6 | –
425 K | 1555 ± 6 | –
450 K | 1553 ± 6 | –
